Broadly, the Ki is the dissociation constant of the complex between target and ligand, obtained from inhibition or displacement.

We go through 5 compounds from publication PMC6236407 (Molecules : A Journal of Synthetic Chemistry and Natural …, 2001).

In assay [1] the test system is 5-HT1A serotonin receptor sites. Conditions: background statement, no reference given; cited from earlier work.
For a further assay, the target named is T1, 5-HT1A receptors (Rattus norvegicus, UniProt P19327).
T1 sequence (P19327 1-422): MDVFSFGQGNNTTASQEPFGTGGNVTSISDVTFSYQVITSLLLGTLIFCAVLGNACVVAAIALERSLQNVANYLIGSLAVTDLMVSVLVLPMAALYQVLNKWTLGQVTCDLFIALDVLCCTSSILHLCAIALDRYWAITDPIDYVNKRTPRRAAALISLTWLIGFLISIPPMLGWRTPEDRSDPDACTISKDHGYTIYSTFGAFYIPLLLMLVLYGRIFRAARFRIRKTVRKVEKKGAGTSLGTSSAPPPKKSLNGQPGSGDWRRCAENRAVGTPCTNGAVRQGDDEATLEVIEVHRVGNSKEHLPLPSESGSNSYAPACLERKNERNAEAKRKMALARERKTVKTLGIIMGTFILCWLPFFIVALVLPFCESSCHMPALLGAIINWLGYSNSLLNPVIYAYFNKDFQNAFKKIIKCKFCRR
Briefly: Radioligand binding, displacement of [3H]-8-OH-DPAT in rat hippocampus. (In general: Loss of bound radioactivity is the signal in a displacement assay; it reports binding, not function.)

For a further assay, the target named is 5-HT2A receptors (Rattus norvegicus, UniProt P14842). As to the kind of experiment: Radioligand binding, displacement of [3H]-ketanserin in rat cortex.
Sequence of 5-HT2A receptors (P14842 whole entry): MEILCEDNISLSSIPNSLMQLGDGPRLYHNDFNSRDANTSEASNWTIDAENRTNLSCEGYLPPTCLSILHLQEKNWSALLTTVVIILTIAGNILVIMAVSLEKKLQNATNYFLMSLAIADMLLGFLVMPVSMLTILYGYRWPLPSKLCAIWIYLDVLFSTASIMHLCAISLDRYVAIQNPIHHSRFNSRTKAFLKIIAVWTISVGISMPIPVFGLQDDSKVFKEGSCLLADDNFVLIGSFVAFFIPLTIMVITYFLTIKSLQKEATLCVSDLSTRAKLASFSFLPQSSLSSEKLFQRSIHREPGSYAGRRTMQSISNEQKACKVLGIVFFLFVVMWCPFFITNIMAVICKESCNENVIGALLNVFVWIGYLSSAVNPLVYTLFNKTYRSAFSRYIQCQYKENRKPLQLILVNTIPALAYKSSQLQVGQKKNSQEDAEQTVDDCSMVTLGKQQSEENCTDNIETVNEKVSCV

Take `O=C1CC2(CCCC2)CC(=O)N1CCCCN1CCN(c2ncccn2)CC1` [Buspirone, {4-[4-(2-pyrimidinyl)-1-piperazinyl]butyl}-8-azaspiro[4.5]decane-7,9-dione]: the “binding to 5-HT1A serotonin receptor sites (in words)” value (shortened to “binding”) in assay [1] was “high affinity and selectivity”. Take `O=c1ccc(=O)n(-c2ccccc2)n1CCCCN1CCN(c2ccccc2)CC1` [Compound 9c, 2-[4-(4-phenyl-1-piperazinyl)butyl]-1-phenyl-1,2-dihydropyridazine-3,6-dione]: the inhibitory constant (Ki) at 5-HT1A receptors is 19 ± 1 nM; on 5-HT2A receptors, 409 ± 17 nM. `O=C1c2ccccc2S(=O)(=O)N1CCCCN1CCN(c2ncccn2)CC1` [Ipsapirone]: the “binding” value in assay [1] was “high affinity and selectivity”. Regarding `O=c1c2ccccc2c(=O)n(-c2ccccc2)n1CCCCN1CCN(c2ccccc2)CC1` [Compound 8c, 3-[4-(4-phenyl-1-piperazinyl)butyl]-2-phenyl-2,3-dihydrophthalazine-1,4-dione], the Ki at 5-HT1A receptors came to 119 ± 8 nM; on 5-HT2A receptors it was 309 ± 1 nM.

For `CC1(C)CC(=O)N(CCCCN2CCN(c3ncccn3)CC2)C(=O)C1` [Gepirone], the “binding” value in assay [1] was “high affinity and selectivity”.
